Patent US20100160391A1, “Substituted Aminopyridines as Fluorescent Reporters for Amide Hydrolases” (priority 2006, published 2010)
Marks after values point to notes of the source that are not given here. Values belong to the compound of their own block, whether it stands above or below them.

How the values were obtained:
[1] = molecular target: T1, microsomal fatty acid amide hydrolase (FAAH) (Homo sapiens, UniProt O00519); assay: Lowest detection limits of microsomal FAAH toward colorimetric and fluorescent substrates; format: biochemical; details: for base line, Average: 0 min; for signal, Average: 10 min
T1 construct: made in house; host or cells: Trichoplusia ni High Five cells infected with recombinant baculovirus Ac-hFAAH; microsomal fraction
T1 sequence (O00519 1-579): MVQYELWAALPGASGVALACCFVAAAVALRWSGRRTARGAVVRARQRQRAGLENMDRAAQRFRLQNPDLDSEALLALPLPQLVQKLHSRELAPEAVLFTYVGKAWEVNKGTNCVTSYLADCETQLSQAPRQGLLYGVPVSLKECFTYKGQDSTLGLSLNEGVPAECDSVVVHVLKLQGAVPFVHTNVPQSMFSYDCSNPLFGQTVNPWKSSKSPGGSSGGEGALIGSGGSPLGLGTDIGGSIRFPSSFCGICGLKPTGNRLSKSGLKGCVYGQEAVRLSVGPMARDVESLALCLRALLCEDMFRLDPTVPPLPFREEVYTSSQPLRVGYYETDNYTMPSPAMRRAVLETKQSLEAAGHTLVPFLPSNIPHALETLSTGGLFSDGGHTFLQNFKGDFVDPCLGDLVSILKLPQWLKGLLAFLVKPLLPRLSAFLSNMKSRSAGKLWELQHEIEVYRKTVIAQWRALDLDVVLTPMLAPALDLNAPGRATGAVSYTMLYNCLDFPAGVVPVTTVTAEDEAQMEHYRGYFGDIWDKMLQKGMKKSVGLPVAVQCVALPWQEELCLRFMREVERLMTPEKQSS
Description: (§1) Preparation of recombinant human FAAH. Transgenic expression of the human FAAH in a baculovirus system was performed by following the method described in Nishi et al., Arch. Biochem. Biophys., 445:115-123 (2006). The cDNA encoding human FAAH (GenBank Accession No. NM_001441) was amplified by PCR using a human liver cDNA library (Invitrogen; Carlsbad, Calif.) as a template. The primer pair was 5′-[…]-3′ and 5′-[…]-3′. BglII and EcoRI endonuclease sites (underlined) were incorporated just upstream of the start codon and downstream of the stop codon of the coding sequence of FAAH, respectively. The PCR products were cloned into a pCR2.1 vector (Invitrogen) and the nucleotide sequence was verified by DNA sequencing. The cDNA fragments were then excised and directionally ligated to the BglII and EcoRI sites of the baculovirus transfer vector pAcUW21 (Lopez-Ferber et al., Baculovirus transfer vectors, in “Baculovirus Expression Protocols,” Richardson (Ed.), pp 25-63, Humana Press, Totowa, N.J., 1995). Recombinant baculoviruses harboring the human FAAH gene, Ac-hFAAH, were generated by co-transfection of Spodoptera frugiperda-derived Sf21 cells with the recombinant transfer vector plasmid and Bsu36I-cleaved BacPAK6 viral DNA (Clontech Laboratories; Mountain View, Calif.) as described in O'Reilly et al., Baculovirus Expression Vectors: A Laboratory Manual, Oxford University Press, New York, 1992. Trichoplusia ni-derived High Five cells (1×10^6 cells/ml) were inoculated with a high titer of Ac-hFAAH. At 72 hours post-infection, the infected cells were harvested by centrifugation at 2,000×g for 20 min at 4° C. and suspended in 50 mM Tris-HCl (pH 8.0) containing 150 mM NaCl, 1 mM EDTA, 1 μM pepstatin, 100 μM leupeptin, and 0.1 mg/ml aprotinin. The cell suspension was then homogenized using a Polytron homogenizer and centrifuged at 10,000×g for 20 min at 4° C. The microsomal fraction was collected by ultracentrifugation of the supernatant at 100,000×g for 60 min at 4° C. The pellet was resuspended in 20 mM Tris-HCl (pH 8.0) containing 10% (w/v) glycerol and 1% (w/v) Triton-X 100 and stored at −80° C. until use.
(§2) Comparison of the lowest detection limits of protein concentration of FAAH toward colorimetric and fluorescent substrates. In general, all assays were performed in 96-well styrene flat-bottom microtiter plates with a Spectra Max M2 spectrophotometer at 37° C. for […]. The total volume of each well was 201 μl consisting of 0.1 M sodium phosphate buffer (pH 8.0) (190 μl) containing 1% glycerol and 0.1% Triton-X 100, stock or diluted protein solution (10 μl), and the substrate solution (1 μl) in ethanol (final concentration 200 μM for 10, 11, 13 or 14) or in DMSO (final concentration 25 μM for 12, 15, or 16; 50 μM for 17). The lowest detection limits of microsomal fatty acid amide hydrolase (FAAH) by substrates were determined by the fact that the signal at 10 min after kinetic measurements are equal to or over three times the noise or basal line at 0 min. Colorimetric substrate (16) assays were performed in clear 96-well microtititer plates using an absorbance wavelength at 382 nm. The fluorescent substrates containing 5-amino-2-methoxypyridine (e.g., 10, 13) were measured at an excitation wavelength (302 nm), emission wavelength (396 nm), and auto cutoff wavelength (325 nm). Similarly, the fluorescent substrates containing 5-amino-2-methoxy-6-methylpyridine (e.g., 11, 14, and 17) were measured at an excitation wavelength (304 nm), emission wavelength (392 nm), and an auto cutoff wavelength of 325 nm. In addition, an excitation wavelength (366 nm), emission wavelength (496 nm), and auto cutoff wavelength (495 nm) were used for the substrates (e.g., 12 and 15) containing 7-amino-4-trifluoromethyl coumarin.

[2] = molecular target: T2, fatty acid amide hydrolase (FAAH) (Homo sapiens, UniProt O00519); assay: Kinetic study of FAAH toward substrates; format: biochemical
T2 construct: made in house; host or cells: Trichoplusia ni High Five cells infected with recombinant baculovirus Ac-hFAAH; microsomal fraction
T2 sequence (O00519 1-579): T1 sequence (O00519 1-579)
Description: as §1
Kinetic study. The kinetic assays were also performed as described above for the sensitivity assay. Briefly, a total volume of 201 μl contained 0.1 M sodium phosphate buffer (pH 8.0) (190 μl) with 1% glycerol and 0.1% Triton-X 100, protein solution (10 μl), and substrate solution (1 μl). The protein content was 0.67 μg per well (201 μl). The concentration of substrate (13) in DMSO was 200, 100, 50, 25, 12.5, 6.25, 3.13, 1.56, or 0.78 μM. Similarly, the concentration of substrate (17) in DMSO was 100, 50, 25, 12.5, 6.25, 3.13, 1.56, 0.78, or 0.39 μM. Four replicates were applied for each concentration. Reported kinetic data (km and Vmax) were analyzed by the SigmaPlot Enzyme Kinetics software (2001) using the Michaelis-Menten equation for all concentrations.

[3] = molecular target: T3, human FAAH, microsomes from FAAH cells (Homo sapiens, UniProt O00519); assay: Specific activity, microsomes from FAAH cells; format: biochemical
T3 construct: made in house; host or cells: Trichoplusia ni High Five cells infected with recombinant baculovirus Ac-hFAAH; microsomal fraction
T3 sequence (O00519 1-579): T1 sequence (O00519 1-579)
Description: as §1, §2
Specific activity determination. The assays for specific activities were performed as described above for the sensitivity assay. […]

[4] = system: amidases, microsomes from High Five cells; assay: Specific activity, microsomes from High Five cells; details: pH 8.0, 37° C.; NM = not measurable at the same protein concentration as other substrates
Description: Preparation of recombinant human FAAH. Transgenic expression of the human FAAH in a baculovirus system was performed by following the method described in Nishi et al., Arch. […] The cDNA encoding human FAAH (GenBank Accession No. NM—001441) was amplified by PCR using a human liver cDNA library (Invitrogen; Carlsbad, Calif.) as a template. The primer pair was 5′-[sequence]-3′ and 5′-[sequence]-3′. BglII and EcoRI endonuclease sites (underlined) were incorporated just upstream of the start codon and downstream of the stop codon of the coding sequence of FAAH, respectively. The PCR products were cloned into a pCR2.1 vector (Invitrogen) and the nucleotide sequence was verified by DNA sequencing. The cDNA fragments were then excised and directionally ligated to the BglII and EcoRI sites of the baculovirus transfer vector pAcUW21 (Lopez-Ferber et al., Baculovirus transfer vectors, in “Baculovirus Expression Protocols,” Richardson (Ed.), pp 25-63, Humana Press, Totowa, N.J., 1995). Recombinant baculoviruses harboring the human FAAH gene, Ac-hFAAH, were generated by co-transfection of Spodoptera frugiperda-derived Sf21 cells with the recombinant transfer vector plasmid and Bsu36I-cleaved BacPAK6 viral DNA (Clontech Laboratories; Mountain View, Calif.) as described in O'Reilly et al., Baculovirus Expression Vectors: A Laboratory Manual, Oxford University Press, New York, 1992. Trichoplusia ni-derived High Five cells (1×10^6 cells/ml) were inoculated with a high titer of Ac-hFAAH. At 72 hours post-infection, the infected cells were harvested by centrifugation at 2,000×g for 20 min at 4° C. and suspended in 50 mM Tris-HCl (pH 8.0) containing 150 mM NaCl, 1 mM EDTA, 1 μM pepstatin, 100 μM leupeptin, and 0.1 mg/ml aprotinin. The cell suspension was then homogenized using a Polytron homogenizer and centrifuged at 10,000×g for 20 min at 4° C. […]
Comparison of the lowest detection limits of protein concentration of FAAH toward colorimetric and fluorescent substrates. […] The lowest detection limits of microsomal fatty acid amide hydrolase (FAAH) by substrates were determined by the fact that the signal at 10 min after kinetic measurements are equal to or over three times the noise or basal line at 0 min. Colorimetric substrate (16) assays were performed in clear 96-well microtititer plates using an absorbance wavelength at 382 nm. The fluorescent substrates containing 5-amino-2-methoxypyridine (e.g., 10, 13) were measured at an excitation wavelength (302 nm), emission wavelength (396 nm), and auto cutoff wavelength (325 nm). Similarly, the fluorescent substrates containing 5-amino-2-methoxy-6-methylpyridine (e.g., 11, 14, and 17) were measured at an excitation wavelength (304 nm), emission wavelength (392 nm), and an auto cutoff wavelength of 325 nm. […]

[5] = Molar extinction coefficient of fluorescent reporters; format: physicochemical; details: H2O containing 1% ethanol, 290 nm, 30° C., 10-50 μM
Description: Molar extinction coefficient. According to Beer's law, Aλ=ε*C*L, where Aλ is the absorbance at wavelength (λ nm); ε is called the molar extinction coefficient; L is the width of the sample cuvette; and C is the concentration of the solute. In this example, a series of concentrations falling between 10 and 50 μM (final concentration) for each fluorescent reporter was used for determination of the molar extinction coefficient. Assays were performed in a quartz cuvette (1 cm optical passage). 10 μl of a stock solution of a reporter in ethanol (1, 2, 3, 4, or 5 mM) was added to 990 μl H2O. The resulting mixture was degassed by sonication with ultrasonic cleaner Model 750 (VWR International; Wester, Pa.) for 10 seconds at a power level of 9. Measurements were performed with a Spectra Max M2 spectrophotometer (Molecular Devices; Sunnyvale, Calif.) at a wavelength of 290 nm. A slope (or extinction coefficient) was obtained by using an average absorbance of triplicate samples.

[6] = Maximal excitation and emission wavelengths; format: physicochemical; details: 50 μM in 0.1 M phosphate buffer, 30° C.; SD ±2 nm
Description: Maximal excitation and emission wavelengths. A stock solution in ethanol of each compound (10 μl, 5 mM) was added to 990 μl of sodium phosphate buffer (0.1 M, pH 8.0, final substrate concentration 50 μM) in a 1-cm quartz cuvette. The quartz cuvette was scanned from 200 to 500 nm for absorption spectra with a Spectra Max M2 spectrophotometer. Maximal excitation and emission wavelengths were obtained from scanning from 250 to 600 nm and 360 to 600 nm by a 2 nm interval at 30° C., respectively.

[7] = Fluorescence quantum yield; format: physicochemical; details: 10 μM, 1% ethanol in water, excitation 290 nm, standard 3-aminopyridine; SD under ±5%
Description: Quantum yield. The fluorescence quantum yield, φf, was calculated according to the following equation:
ØF=Østd*(I/Istd)*(ODstd/OD)*(n/nstd)^2,
wherein ØF is the quantum yield of the tested fluorescent reporter; Østd is the fluorescence quantum yield of the standard; I and Istd are the integrated emission intensities of the sample and the standard, respectively; OD and ODstd are the absorbance of the sample and standard, respectively, at the desired wavelength λex; and n and nstd are the indexes of refraction of the sample and standard solutions, respectively (Horspool and Song (Eds.), CRC Handbook of Organic Photochemistry I, pp 234-235, CRC Press, Boca Raton, Fla., 1995).
In this example, 3-aminopyridine in water at the maximal excitation wavelength of 290 nm was used as a standard (Østd=0.32, εmax=2800 M^−1 cm^−1) (see, e.g., Weisstuch et al., J. Phys. Chem., 72:1982-1987 (1968)). In order to minimize inner filter effects, the optical densities of samples at the excitation wavelength (λ=290 nm) were kept in the range of 0.095-0.13 (less than 0.150-0.165). The final concentration of each tested sample in a quartz cuvette was 10 μM with 1% ethanol in water, same as that for the standard. The integrated area of fluorescent intensity for the standard or the samples was based on the area between 360 and 500 nm. The difference of the index of refraction between the standard and the sample was neglected because (1) all measurements were performed in the same quartz cuvette and spectrofluorimeter; (2) the final concentrations of the sample and the standard were the same; and (3) the structures of the sample and standard were very similar, i.e., only one pyridine ring. The quantum yields presented in Table 1 were based on calculation of the average of OD and integrated fluorescent intensities of triplicates. The standard deviation for each quantum yield was less than ±5%.

[8] = Dependence of relative fluorescent intensity on pH values; format: physicochemical; details: pH 6.0 to 9.0, sodium phosphate or Tris/HCl buffer, 25 μM
Description: The dependence of relative fluorescent intensity on pH values. 5-amino-2-methoxypyridine (6) was used to determine whether protonization/de-protonization affects the relative fluorescent intensities of the reporters. A stock solution of (6) in ethanol (5 μl, 5 mM) was added to 995 μl 0.1 M sodium phosphate buffer (from pH 6.0 to pH 8.0) or 0.1 M Tris/HCl buffer (pH 9.0) in a quartz cuvette (final substrate concentration 25 μM). Relative fluorescent unit/intensity (RFU) for emission spectra was recorded by a 2 nm interval at room temperature using a fixed excitation wavelength (λ=302 nm). The RFU of each pH value was an average of triplicates and the standard deviation for each point was less than 1%. Similarly, the RFU of the excitation spectrum was recorded by a 2 nm interval at room temperature using a fixed emission wavelength (λ=396 nm) in 0.1 M phosphate buffer (pH 8.0).

[9] = protein 0.11 (13), 0.67 (14), 100 (15), 0.5 (17) μg/well, 200 μM (13),(14), 25 μM (15), 50 μM (17)
[10] = pH 8.0, 37° C., 0.67 μg protein per well, Michaelis-Menten
[11] = FAAH sensitivity assay, Table 2
[12] = absorbance 382 nm, protein 100 μg/well, 25 μM

SMILES: CCCCC/C=C\C/C=C\C/C=C\C/C=C\CCCC(=O)Nc1ccc(OC)nc1 [Compound 17]
base line, Average [1, 9]: 148 RFU | signal, Average [1, 9]: 559* RFU | Protein, lowest detection limit of microsomal FAAH (signal at 10 min ≥ three times base line) ([1]; pH 8): 0.5 μg/200 μ′ | lowest detection limit of protein ([1]; signal at 10 min equal to three times base line): 2.5 μg protein/ml | Selectivity ratio ([2]; Vmax/Km of substrate over that of oleamide (5.5 × 10^−2)): 54.5 | Km [2, 10]: 12.5 µM | Vmax [2, 10]: 36.7 nmol/min/mg | enhancement of activity, microsomes from FAAH-expressing cells compared with High Five cells [3]: 4180 times | Specific activity, Microsomes from FAAH cells ([3]; pH 8): 23.5 ± 0.7 nmol/min/mg protein | Specific activity, Microsomes from High Five cells [4]: 5.62 ± 0.67 pmol/min/mg protein

SMILES: COc1ccc(NC(C)=O)cn1 [Compound 10, N-(6-methoxypyridin-3-yl) acetamide]
Specific activity, Microsomes from High Five cells [4]: 56 ± 2 pmol/min/mg protein

SMILES: COc1ccc(N)cn1 [Compound 6, 5-amino-2-methoxypyridine]
εmax, molar extinction coefficient [5]: 2340 M⁻¹ cm⁻¹ | Em, maximal emission wavelength [6]: 396 nm | Ex, maximal excitation wavelength [6]: 302 nm | ØF, fluorescence quantum yield [7]: 0.95 | relative fluorescent intensity of excitation or emission as function of pH [8]: increased with an increase of pH value

Second part, the compound after the results:

base line, Average [1, 9]: 132 RFU | signal, Average [1, 9]: 161 RFU | times less sensitive than substrate (13) [1, 11]: at least 900 times | times less sensitive than substrate (14) [1, 11]: ≥ 150 times | melting point: 136.6 to 137.1 °C
SMILES: CCCCCCCC(=O)Nc1ccc2c(C(F)(F)F)cc(=O)oc2c1 [Compound 15, N-(4-(trifluoromethyl)-2-oxo-2H-chromen-7-yl) octanamide]

base line, Average [1, 12]: 0.16 OD | signal, Average [1, 12]: 0.18 OD | melting point: 80.9 to 81.6 °C
SMILES: CCCCCCCC(=O)Nc1ccc([N+](=O)[O-])cc1 [Compound 16, N-(4-nitrophenyl) octanamide]
